From ChEMBL document CHEMBL1201862, “PubChem BioAssay data set” (2004)
Active and inactive are the calls of the source. Cut-off read from the data, not from the text of the source, for most assays here: actives have a measured EC50 and inactives only a lower limit.

Experiments:
[1] = target: T1, NADPH oxidase 1 (Homo sapiens, UniProt Q9Y5S8); test: Luminescence-based cell-based dose response assay to identify inhibitors of NADPH oxidase 1 (NOX1).; assay type: functional
T1 sequence (Q9Y5S8 whole entry): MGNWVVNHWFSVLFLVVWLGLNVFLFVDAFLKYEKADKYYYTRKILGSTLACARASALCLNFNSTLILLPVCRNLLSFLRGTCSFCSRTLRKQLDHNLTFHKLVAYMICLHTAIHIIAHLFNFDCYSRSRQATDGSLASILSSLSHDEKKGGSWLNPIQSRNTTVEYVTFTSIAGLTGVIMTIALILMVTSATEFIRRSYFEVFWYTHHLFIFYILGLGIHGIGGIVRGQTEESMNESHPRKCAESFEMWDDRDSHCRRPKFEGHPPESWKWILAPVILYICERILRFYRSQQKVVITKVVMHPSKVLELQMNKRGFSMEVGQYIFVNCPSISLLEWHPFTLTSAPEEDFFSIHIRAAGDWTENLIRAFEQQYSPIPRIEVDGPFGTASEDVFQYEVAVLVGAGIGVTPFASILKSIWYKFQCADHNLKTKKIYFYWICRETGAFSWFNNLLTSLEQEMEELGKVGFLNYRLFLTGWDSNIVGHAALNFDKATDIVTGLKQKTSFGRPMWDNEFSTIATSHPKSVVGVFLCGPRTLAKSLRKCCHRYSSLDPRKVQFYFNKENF

[2] = luciferase reporter signal suppression in cells – H4 neuroglioma cells, luminescence, dose response (AID 1990); assay type: functional, cell-based
[3] = Luminescence Cell-Based Dose Response HTS to Identify Inhibitors of 5'UTR Stem-Loop Driven Prion Protein mRNA Translation in H4 Neuroglioblastoma Cells. [Related pubchem assays: 1827 (Project Summary), 1813 (Primary HTS)]; assay type: functional
[4] = target: T2, Heat shock factor protein 1 (Mus musculus, UniProt P38532); test: decrease of HSF1-responsive luciferase luminescence – cell-based, NIH3T3, dose retest, confirmation (AID 2382); assay type: functional;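 note: NIH3T3 fibroblasts with HSF1-driven luciferase reporter stressed by proteasome inhibitor MG132; luminescence from HSF1-driven luciferase expression after 8 hours of MG132 stress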
T2 sequence (P38532 whole entry): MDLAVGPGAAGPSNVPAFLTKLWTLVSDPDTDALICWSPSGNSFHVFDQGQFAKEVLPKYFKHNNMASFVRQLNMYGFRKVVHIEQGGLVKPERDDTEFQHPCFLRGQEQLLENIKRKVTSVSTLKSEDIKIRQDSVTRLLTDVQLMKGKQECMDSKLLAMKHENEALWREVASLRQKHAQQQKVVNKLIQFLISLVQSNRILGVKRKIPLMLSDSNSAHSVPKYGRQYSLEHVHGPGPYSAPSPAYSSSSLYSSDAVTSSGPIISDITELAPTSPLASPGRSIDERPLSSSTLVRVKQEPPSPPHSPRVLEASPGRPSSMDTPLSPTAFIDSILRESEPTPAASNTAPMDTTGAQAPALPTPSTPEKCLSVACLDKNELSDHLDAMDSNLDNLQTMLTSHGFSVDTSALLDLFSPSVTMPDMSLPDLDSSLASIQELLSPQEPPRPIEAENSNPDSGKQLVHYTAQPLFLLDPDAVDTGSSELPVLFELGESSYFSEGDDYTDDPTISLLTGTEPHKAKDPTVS

[5] = alpha-synuclein stem-loop luciferase translation blockers – H4 neuroglioma cells, luminescence, confirmation (AID 1988); assay type: functional, cell-based
[6] = Luminescence-based dose response cell-based high throughput screening assay for cytotoxic compounds using the IEC-6 intestinal epithelial cell line. [Related pubchem assays: 1858 (Summary AID.), 1825 (Counterscreen.), 1907 (Confirmation screen.)]; assay type: functional
[7] = target: T3, Replicative DNA helicase DnaB (Mycobacterium tuberculosis, UniProt P9WMR3); test: DnaB intein splicing inhibitors, dose response, biochemical, cell-free fluorescence (AID 449749); assay type: functional
T3 sequence (P9WMR3 whole entry): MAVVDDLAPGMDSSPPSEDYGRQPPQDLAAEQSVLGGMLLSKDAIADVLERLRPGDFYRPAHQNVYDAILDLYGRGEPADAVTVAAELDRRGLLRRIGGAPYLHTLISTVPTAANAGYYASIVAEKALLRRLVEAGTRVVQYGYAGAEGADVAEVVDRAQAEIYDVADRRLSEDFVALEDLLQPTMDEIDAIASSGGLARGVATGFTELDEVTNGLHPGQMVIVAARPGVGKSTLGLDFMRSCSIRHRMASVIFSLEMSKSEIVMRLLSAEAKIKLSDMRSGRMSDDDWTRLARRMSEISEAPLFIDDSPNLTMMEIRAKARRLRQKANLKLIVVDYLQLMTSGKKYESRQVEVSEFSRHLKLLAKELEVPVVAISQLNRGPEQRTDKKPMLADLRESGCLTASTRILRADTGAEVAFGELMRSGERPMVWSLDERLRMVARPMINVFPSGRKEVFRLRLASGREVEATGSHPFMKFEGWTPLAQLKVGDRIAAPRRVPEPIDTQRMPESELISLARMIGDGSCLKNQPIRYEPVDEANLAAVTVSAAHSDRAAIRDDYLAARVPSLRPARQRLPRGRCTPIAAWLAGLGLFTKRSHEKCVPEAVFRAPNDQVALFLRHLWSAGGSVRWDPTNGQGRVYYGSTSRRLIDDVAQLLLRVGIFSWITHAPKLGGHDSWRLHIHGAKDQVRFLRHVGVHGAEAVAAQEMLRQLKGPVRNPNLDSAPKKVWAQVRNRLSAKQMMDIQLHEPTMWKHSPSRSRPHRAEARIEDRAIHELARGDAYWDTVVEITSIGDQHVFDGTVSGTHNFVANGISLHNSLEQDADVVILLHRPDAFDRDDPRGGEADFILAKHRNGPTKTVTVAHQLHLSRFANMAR

[8] = target: T4, Protein RecA (Mycobacterium tuberculosis, UniProt P9WHJ3); test: Fluorescence Cell-Free Homogeneous Dose Retest to Identify Inhibitors of RecA-Intein Splicing Activity. [Related pubchem assays (depositor defined):AID2097, AID2223, AID489010, AID492950]; assay type: functional
T4 sequence (P9WHJ3 whole entry): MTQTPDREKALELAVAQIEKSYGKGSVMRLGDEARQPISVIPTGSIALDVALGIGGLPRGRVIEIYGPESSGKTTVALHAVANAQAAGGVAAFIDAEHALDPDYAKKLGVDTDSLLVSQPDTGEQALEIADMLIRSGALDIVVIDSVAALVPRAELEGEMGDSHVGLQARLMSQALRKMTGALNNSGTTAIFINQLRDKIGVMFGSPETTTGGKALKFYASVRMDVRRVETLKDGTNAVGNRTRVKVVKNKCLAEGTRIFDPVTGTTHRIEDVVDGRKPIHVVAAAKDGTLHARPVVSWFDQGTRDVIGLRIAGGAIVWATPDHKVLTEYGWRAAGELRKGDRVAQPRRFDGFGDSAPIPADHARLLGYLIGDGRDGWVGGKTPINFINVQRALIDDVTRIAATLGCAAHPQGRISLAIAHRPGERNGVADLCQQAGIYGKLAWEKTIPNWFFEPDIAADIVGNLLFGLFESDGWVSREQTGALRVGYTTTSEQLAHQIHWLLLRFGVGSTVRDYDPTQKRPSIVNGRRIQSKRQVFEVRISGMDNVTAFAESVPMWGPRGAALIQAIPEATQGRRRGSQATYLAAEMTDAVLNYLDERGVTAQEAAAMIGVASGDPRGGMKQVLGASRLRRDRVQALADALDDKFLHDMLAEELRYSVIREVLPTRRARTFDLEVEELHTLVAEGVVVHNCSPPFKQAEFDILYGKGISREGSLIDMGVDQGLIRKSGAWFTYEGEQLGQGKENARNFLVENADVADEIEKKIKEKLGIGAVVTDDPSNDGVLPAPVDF

[9] = target: T5, Estrogen receptor (Homo sapiens, UniProt P03372); test: ERα coactivator recruitment enhancers – biochemical, TR-FRET, ERα LBD, dose response (AID 737)
T5 sequence (P03372 whole entry): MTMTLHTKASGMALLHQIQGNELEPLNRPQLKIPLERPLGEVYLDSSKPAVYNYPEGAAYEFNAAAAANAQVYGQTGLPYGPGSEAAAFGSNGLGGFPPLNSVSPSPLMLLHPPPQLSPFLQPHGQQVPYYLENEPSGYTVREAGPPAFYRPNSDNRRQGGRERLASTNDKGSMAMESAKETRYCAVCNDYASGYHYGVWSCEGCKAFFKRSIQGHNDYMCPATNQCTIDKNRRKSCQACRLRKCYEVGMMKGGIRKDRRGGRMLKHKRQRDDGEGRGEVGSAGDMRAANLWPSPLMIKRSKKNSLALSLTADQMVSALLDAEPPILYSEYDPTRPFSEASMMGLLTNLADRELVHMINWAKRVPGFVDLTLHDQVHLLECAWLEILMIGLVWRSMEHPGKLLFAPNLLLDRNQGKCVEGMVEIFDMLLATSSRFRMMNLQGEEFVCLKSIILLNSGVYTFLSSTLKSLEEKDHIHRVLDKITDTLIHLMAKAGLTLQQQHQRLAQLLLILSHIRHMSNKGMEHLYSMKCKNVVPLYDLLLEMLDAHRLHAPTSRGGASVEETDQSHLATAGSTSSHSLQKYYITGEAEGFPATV

CC(=NNc1ccc(C(=O)O)cc1)c1ccc2c(c1)Nc1ccccc1S2
active: IC50 [1] 53 nM

O=C1C=C(NCCN2CCOCC2)C(=O)c2cnccc21
active: EC50 [2] 1990 nM | EC50 [3] 6810 nM | EC50 [4] 10400 nM | EC50 [5] 1880 nM | IC50 [6] 512 nM | AC50 [7] 979 nM | EC50 [8] 536 nM

Cc1cc2oc(=O)cc(COC(=O)c3[nH]nc4ccccc34)c2cc1C
active: EC50 [9] 13500 nM
